Laboratory results published in patent US20230013669A1, “Antibacterial Treatment Using a Cannabinoid and an Active Agent” (priority 2019, published 2023).
Several values for one entry are separate records, joined by “and”; a condition that tells them apart may be missing. Equal values may be shown once.

System: Escherichia coli ATCC 25922 (GN_001)
Test: Synergy of cannabidiol with cell-wall disrupting agent (CBD MIC in combination, FICI)
Assay type: cell-based
Method: The compounds were stored short term at 4° C.
Analysis was performed using Microsoft Excel.

[1] = CBD with Colistin, Escherichia coli ATCC 25922
[2] = CBD with MCC_6442, Escherichia coli ATCC 25922
[3] = CBD with Ticarcillin, Escherichia coli ATCC 25922

In the case of `C=C(C)C1CCC(C)=CC1c1c(O)cc(CCCCC)cc1O` (stereo not shown) [Cannabidiol, 2-[3-methyl-6-(1-methylethenyl)-2-cyclohexen-1-yl]-5-pentyl-1,3-benzenediol], the “CBD MIC with Aztreonam” value (Aztreonam at 0.062 μg/mL) is reported as 1 ng/mL, the “CBD MIC with Aztreonam” value (Aztreonam at 0.25 μg/mL) is reported as 1 ng/mL and the “CBD MIC with Aztreonam” value (Aztreonam at 0.5 μg/mL) is reported as 1 ng/mL. For the same molecule, the “CBD MIC with Aztreonam” value (Aztreonam at […]) was 1 ng/mL, the FICI (CBD with Aztreonam at 0.015 μg/mL, CBD MIC taken as 256 μg/mL) was 1.12 and the FICI (CBD with Aztreonam at 0.031 μg/mL, CBD MIC taken as 256 μg/mL) was 1.248. For the same molecule, the FICI (CBD with Aztreonam at 0.062 μg/mL, CBD MIC taken as 256 μg/mL) was 0.496, the FICI (CBD with Aztreonam at 0.25 μg/mL, CBD MIC taken as 256 μg/mL) was 2 and the FICI (CBD with Aztreonam at 0.5 μg/mL, CBD MIC taken as 256 μg/mL) was 4. For the same molecule, the FICI range (CBD with Aztreonam, Synergy table (Table 76)) was 0.48, the FICI range (CBD with Aztreonam, all tested concentrations (Table 74)) was 0.5-4 and the FICI (CBD with Cefepime at 0.015 μg/mL, CBD MIC taken as 256 μg/mL) was 1.484 and 1.242. It also gave an FICI (CBD with Cefepime at 0.062 μg/mL, CBD MIC taken as 256 μg/mL) of 2, an FICI (CBD with Cefepime at 0.25 μg/mL, CBD MIC taken as 256 μg/mL) of 8.065 and an FICI (CBD with Cefepime at 0.25 μg/mL, CBD MIC taken as 256 μg/mL, listed as cannabidiol) of 4.032. For the same molecule, the FICI (CBD with Cefepime at 0.5 μg/mL, CBD MIC taken as 256 μg/mL) was 16.13 and 8.065, the FICI range (CBD with Cefepime, all tested concentrations (Table 79), listed as CBD) was 1-16.13 and 0.5-8.06 and the FICI (CBD with Cefotetan at 0.015 μg/mL, CBD MIC taken as 256 μg/mL) was 1.06. For the same molecule, the FICI (CBD with Cefotetan at 0.031 μg/mL, CBD MIC taken as 256 μg/mL) was 1.124, the FICI (CBD with Cefotetan at 0.062 μg/mL, CBD MIC taken as 256 μg/mL) was 1.248 and the FICI (CBD with Cefotetan at 0.5 μg/mL, CBD MIC taken as 256 μg/mL) was 2. For the same molecule, the “FICI range (MIC table)” value (CBD with Cefotetan, Escherichia coli ATCC 25922) was 0.5-2, the FICI range (CBD with Cefotetan, Synergy table (Table 71)) was 0.5 and the FICI (CBD with Ceftazidime at 0.015 μg/mL, Escherichia coli ATCC 25922) was 1.242. For the same molecule, the FICI (CBD with Ceftazidime at 0.031 μg/mL, Escherichia coli ATCC 25922) was 1.5, the FICI (CBD with Ceftazidime at 0.062 μg/mL, Escherichia coli ATCC 25922) was 2 and the FICI (CBD with Ceftazidime at 0.25 μg/mL, Escherichia coli ATCC 25922) was 4.032. For the same molecule, the FICI (CBD with Ceftazidime at 0.5 μg/mL, Escherichia coli ATCC 25922) was 8.065, the “FICI range (MIC table)” value (CBD with Ceftazidime, Escherichia coli ATCC 25922) was 1.24-8.06 and the FICI (CBD with Cefuroxime at 0.25 μg/mL, Escherichia coli ATCC 25922) was 1.125. For the same molecule, the FICI (CBD with Cefuroxime at 1 μg/mL, Escherichia coli ATCC 25922) was 1.5, the FICI (CBD with Cefuroxime at 2 μg/mL, Escherichia coli ATCC 25922) was 1.001 and the FICI (CBD with Cefuroxime at 4 μg/mL, Escherichia coli ATCC 25922) was 2. For the same molecule, the FICI (CBD with Cefuroxime at 8 μg/mL, Escherichia coli ATCC 25922) was 4, the FICI (CBD with Colistin at 0.015 μg/mL, Escherichia coli ATCC 25922) was 1.03 and the FICI (CBD with Colistin at 0.03 μg/mL, Escherichia coli ATCC 25922) was 1.06. For the same molecule, the FICI (CBD with Colistin at 0.06 μg/mL, Escherichia coli ATCC 25922) was 0.1512, the FICI (CBD with Colistin at 0.25 μg/mL, Escherichia coli ATCC 25922) was 0.5039 and the FICI (CBD with Colistin at 0.5 μg/mL, Escherichia coli ATCC 25922) was 1. For the same molecule, the “FICI range (MIC table)” value [1] was 0.15-1.06, the “FICI range (Synergy table)” value [1] was 0.15-0.5 and the “FICI range (MIC table)” value [2] was 0.5-1.25. For the same molecule, the “FICI range (Synergy table)” value [2] was 0.5, the FICI (CBD with MCC_6442 at 0.25 μg/mL, Escherichia coli ATCC 25922) was 1.0625 and the FICI (CBD with MCC_6442 at 0.5 μg/mL, Escherichia coli ATCC 25922) was 1.125. For the same molecule, the FICI (CBD with MCC_6442 at 2 μg/mL, Escherichia coli ATCC 25922, listed as CBD) was 0.5, the FICI range (CBD with Octapeptin C4, Synergy table (Table 85), listed as CBD) was 0.5 and 0.31-0.5 and the FICI range (CBD with Octapeptin C4, all tested concentrations (Table 83), listed as CBD) was 0.5-1.25 and 0.31-1.13. For the same molecule, the FICI (CBD with Octapeptin C4 at 0.5 μg/mL, CBD MIC taken as 256 μg/mL) was 1.0625, the FICI (CBD with Octapeptin C4 at 1 μg/mL, CBD MIC taken as 256 μg/mL) was 1.125 and the FICI (CBD with Octapeptin C4 at 2 μg/mL, CBD MIC taken as 256 μg/mL) was 0.3125. The FICI (CBD with Octapeptin C4 at 4 μg/mL, CBD MIC taken as 256 μg/mL) was 0.5002 and 0.5005, the FICI (CBD with Octapeptin C4 at […], CBD MIC taken as 256 μg/mL) was 1.016 and the FICI range (CBD with Spero SPR206, 1st of 3 experiments) was 0.5-16. The FICI range (CBD with Spero SPR206, 2nd of 3 experiments, listed as CBD) was 0.13-1.06 and 0.07-1.03, the FICI range (CBD with Spero SPR206, 3rd of 3 experiments) was 1.01-8 and the FICI (CBD with Spero SPR206 at 0.007 μg/mL, 2nd of 3 experiments, CBD MIC taken as 256 μg/mL) was 1.014. For the same molecule, the FICI (CBD with Spero SPR206 at 0.015 μg/mL, 2nd of 3 experiments, CBD MIC taken as 256 μg/mL) was 1.03, the FICI (CBD with Spero SPR206 at 0.062 μg/mL, 2nd of 3 experiments, CBD MIC taken as 256 μg/mL) was 0.1279 and the FICI (CBD with Spero SPR206 at 0.25 μg/mL, 2nd of 3 experiments, CBD MIC taken as 256 μg/mL) was 0.5039. The FICI (CBD with Spero SPR206 at 0.25 μg/mL, 3rd of 3 experiments, CBD MIC taken as 256 μg/mL) was 1.5, the FICI (CBD with Spero SPR206 at 0.5 μg/mL, 1st of 3 experiments, CBD MIC taken as 256 μg/mL) was 2 and the FICI (CBD with Spero SPR206 at 0.5 μg/mL, 3rd of 3 experiments, CBD MIC taken as 256 μg/mL) was 1.008. The FICI (CBD with Spero SPR206 at 1 μg/mL, 1st of 3 experiments, CBD MIC taken as 256 μg/mL) was 4, the FICI (CBD with Spero SPR206 at 1 μg/mL, 3rd of 3 experiments, CBD MIC taken as 256 μg/mL) was 2.002 and 2.001 and the FICI (CBD with Spero SPR206 at 2 μg/mL, 1st of 3 experiments, CBD MIC taken as 256 μg/mL) was 8. For the same molecule, the FICI (CBD with Spero SPR206 at 2 μg/mL, 3rd of 3 experiments, CBD MIC taken as 256 μg/mL) was 4.001, the FICI (CBD with Spero SPR206 at 4 μg/mL, 1st of 3 experiments, CBD MIC taken as 256 μg/mL) was 16 and the FICI (CBD with Spero SPR206 at 4 μg/mL, 3rd of 3 experiments, CBD MIC taken as 256 μg/mL) was 8. For the same molecule, the FICI (CBD with Ticarcillin at 0.5 μg/mL, Escherichia coli ATCC 25922) was 1.0625, the FICI (CBD with Ticarcillin at 1 μg/mL, Escherichia coli ATCC 25922) was 1.125 and the FICI (CBD with Ticarcillin at 4 μg/mL, Escherichia coli ATCC 25922) was 0.5005. For the same molecule, the “FICI range (MIC table)” value [3] was 0.5-1.25, the “FICI range (Synergy table)” value [3] was 0.5 and the “CBD MIC with Cefepime” value (Cefepime at 0.031 μg/mL) was 1 ng/mL. For the same molecule, the “CBD MIC with Cefepime” value (Cefepime at 0.062 μg/mL) was 1 ng/mL, the “CBD MIC with Cefepime” value (Cefepime at 0.25 μg/mL) was 1 ng/mL and the “CBD MIC with Cefepime” value (Cefepime at 0.5 μg/mL) was 1 ng/mL. For the same molecule, the “CBD MIC with Cefepime” value (Cefepime at […]) was 1 ng/mL, the “CBD MIC with Cefotetan” value (Cefotetan at 0.015 μg/mL) was >32000 ng/mL and the “CBD MIC with Cefotetan” value (Cefotetan at 0.015 μg/mL, Escherichia coli ATCC 25922) was >256000 ng/mL. For the same molecule, the “CBD MIC with Cefotetan” value (Cefotetan at 0.031 μg/mL) was >32000 ng/mL, the “CBD MIC with Cefotetan” value (Cefotetan at 0.031 μg/mL, Escherichia coli ATCC 25922) was >256000 ng/mL and the “CBD MIC with Cefotetan” value (Cefotetan at 0.062 μg/mL) was >32000 ng/mL. For the same molecule, the “CBD MIC with Cefotetan” value (Cefotetan at 0.062 μg/mL, Escherichia coli ATCC 25922) was >256000 ng/mL, the “CBD MIC with Cefotetan” value (Cefotetan at 0.25 μg/mL) was 1 ng/mL and the “CBD MIC with Cefotetan” value (Cefotetan at 0.25 μg/mL, Escherichia coli ATCC 25922) was 1 ng/mL. The “CBD MIC with Cefotetan” value (Cefotetan at 0.5 μg/mL) was 1 ng/mL, the “CBD MIC with Cefotetan” value (Cefotetan at 0.5 μg/mL, Escherichia coli ATCC 25922) was 1 ng/mL and the “CBD MIC with Cefotetan” value (Cefotetan at […]) was 1 ng/mL. For the same molecule, the “CBD MIC with Cefotetan” value (Cefotetan at […], Escherichia coli ATCC 25922) was 1 ng/mL, the “CBD MIC with Ceftazidime” value (Ceftazidime at 0.25 μg/mL, Escherichia coli ATCC 25922) was 1 ng/mL and the “CBD MIC with Ceftazidime” value (Ceftazidime at 0.5 μg/mL, Escherichia coli ATCC 25922) was 1 ng/mL. The “CBD MIC with Cefuroxime” value (Cefuroxime at 2 μg/mL, Escherichia coli ATCC 25922) was 250 ng/mL.
